# In patent publication US20200231562A1, “NOVEL MACROLIDE ANTIBIOTICS” (HELMHOLTZ-ZENTRUM FÜR INFEKTIONSFORSCHUNG GMBH, priority 2014, published 2020):
# Experiments:
# [1] = tested on: transformed lung epithelial A-549 cells; test: MTT assay, cytotoxic activity; format: cell-based, human; conditions: incubation 24 or 48 hours
# Experimental: (§1) The cytotoxic activity of gulmirecin A (3) and gulmirecin B (4) against human cells was evaluated in the well-established MTT assay using primary monocytes from human peripheral blood as well as transformed lung epithelial cell A-549 cell and leukemic Mono Mac 6 cells. Furthermore, 3 and 4 were tested against K-562, HUVEC, and HeLa cells.
# (§2) The human monocytic cell line Mono Mac 6 was cultured in RPMI 1640 medium supplemented with FCS (10%, v/v), penicillin (100 U/ml), streptomycin (100 μg/ml), insulin (10 μg/ml), oxaloacetic acid (1 mM), sodium pyruvate (1 mM), and 1× non-essential amino acids at 37° C. and 5% CO2. A-549 cells (DSM ACC-107) were cultured in DMEM high glucose (4.5 g/l) medium supplemented with FCS (10% v/v), penicillin (100 U/ml) and streptomycin (100 μg/ml) at 37° C. in a 5% CO2 incubator. K-562 (DSM ACC 10) and HeLa cells (DSM ACC 57) were grown in RPMI 1640, whereas cells of HUVEC (ATCC CRL-1730) were cultured in DMEM medium. The respective media were supplemented with ultraglutamine 1 (10 ml/l), gentamicin sulfate (500 μl/l), and FCS (10% v/v).
# (§3) Cells (3×10^5 Mono Mac 6, 1×10^5 A-549 cells, or 2×10^6 monocytes per well) were seeded in a 96-well plate in the respective medium (100 μl/well). Monocytes were allowed to adhere for 1.5 hours (37° C., 5% CO2) prior to treatment. Test compounds (0.3% DMSO as vehicle) were added to each well and samples were incubated for 48 hrs. Then, 20 μl of thiazolyl blue tetrazolium bromide (MTT, 5 mg/ml PBS) were added, and the incubation was continued at 37° C., 5% CO2 until blue staining of the vehicle control. Formazan formation was stopped by adding 100 μl of lysis buffer (SDS, 10%, w/v in 20 mM HCl) and samples were shaken overnight. Absorbance of each well was measured at 570 nm in a Multiskan™ microplate spectrophotometer (Thermo Scientific).
# [2] = tested on: leukemic Mono Mac 6 cells; test: MTT assay, cytotoxic activity; format: cell-based, human; conditions: incubation 24 or 48 hours
# Experimental: as §1, §2
# as §3, with “Test compounds (0.3% DMSO as vehicle) were added to each well and samples were incubated for 48 hrs.” left out
# [3] = tested on: K-562 cells; test: Antiproliferative effect (CellTiter-Blue); format: cell-based, human; conditions: K-562, at a concentration of 100 μM
# Experimental: as §2
# (§4) The test substances were dissolved in methanol before being diluted in DMEM. The adherent cells were harvested at the logarithmic growth phase after soft trypsinization using 0.25% trypsin in PBS containing 0.02% EDTA. For each experiment, approximately 10,000 cells were seeded with 0.1 ml culture medium per well of the 96-well microplates. […] In case of K-562 cells, the number of viable cells in every well was determined using the CellTiter-Blue1 assay. […] The optical densities were measured at 660 nm in a SUNRISE microplate reader (TECAN).
# [4] = tested on: HeLa cells; test: Cytotoxic effect (methylene blue staining); format: cell-based, human; conditions: at a concentration of 100 μM
# Experimental: as §2, §4
# [5] = tested on: S. aureus N315 wildtype (WT); test: Susceptibility (MIC) of S. aureus N315 wildtype; format: cell-based; conditions: Staphylococcus aureus
# [6] = tested on: S. aureus N315 mutant Mt50DscA.1; test: Susceptibility (MIC) of Disciformycin A-resistant mutant; format: cell-based; conditions: Staphylococcus aureus
# [7] = tested on: S. aureus N315 mutant Mt50DscA.2; test: as above; format: cell-based; conditions: Staphylococcus aureus
# [8] = tested on: S. aureus N315 mutant Mt50DscA.3; test: as above; format: cell-based; conditions: Staphylococcus aureus
# [9] = tested on: S. aureus N315 mutant Mt50DscA.4; test: as above; format: cell-based; conditions: Staphylococcus aureus
# [10] = tested on: S. aureus N315 mutant Mt50DscA.5; test: as above; format: cell-based; conditions: Staphylococcus aureus
# [11] = tested on: S. aureus N315 mutant Mt50DscA.6; test: as above; format: cell-based; conditions: Staphylococcus aureus
# [12] = tested on: S. aureus N315 mutant Mt50DscA.8; test: as above; format: cell-based; conditions: Staphylococcus aureus
# [13] = tested on: S. aureus N315 Mt50DscA.9; test: as above; format: cell-based; conditions: Staphylococcus aureus
# [14] = tested on: S. aureus N315 mutant Mt50DscA.10; test: as above; format: cell-based; conditions: Staphylococcus aureus
# [15] = tested on: S. aureus N315 mutant Mt50DscA.11; test: as above; format: cell-based; conditions: Staphylococcus aureus
Compound,cell viability / cytotoxicity (MTT) [1],cell viability / cytotoxicity (MTT) [2],inhibition of proliferation [3],inhibition of proliferation [4],MIC [5] [µg/mL],MIC [6] [µg/mL],MIC [7] [µg/mL],MIC [8] [µg/mL],MIC [9] [µg/mL],MIC [10] [µg/mL],MIC [11] [µg/mL],MIC [12] [µg/mL],MIC [13] [µg/mL],MIC [14] [µg/mL],MIC [15] [µg/mL]
"C/C=C(/C)[C@H]1C/C=C(\C)[C@@H](O[C@H]2O[C@H](CO)[C@@H](O)[C@@H]2O)[C@H](O)C(=O)CC[C@H](C)C(=O)O1 [Compound 4, gulmirecin B]",no reduction in cell viability at the concentrations required for antibacterial activity,no reduction in cell viability at the concentrations required for antibacterial activity,did not inhibit,did not inhibit,32,> 64,> 64,> 64,> 64,> 64,> 64,> 64,> 64,> 64,> 64
"C/C=C(/C)[C@H]1C/C=C(\C)[C@@H](O[C@H]2O[C@H](CO)[C@@H](O)[C@@H]2O)[C@H](OC(=O)CC(C)C)C(=O)C[C@@H](O)[C@H](C)C(=O)O1 [Compound 3, gulmirecin A]",no reduction in cell viability at the concentrations required for antibacterial activity,no reduction in cell viability at the concentrations required for antibacterial activity,did not inhibit,did not inhibit,4,> 64,> 64,> 64,> 64,64,> 64,> 64,> 64,> 64,> 64
"C/C=C(/C)[C@H]1C/C=C(\C)[C@@H](O[C@H]2O[C@H](CO)[C@@H](O)[C@@H]2O)[C@H](OC(=O)CC(C)C)C(=O)C/C=C(/C)C(=O)O1 [Compound 1, disciformycin A]",,,,,4,> 64,> 64,> 64,> 64,64,> 64,> 64,> 64,> 64,> 64
